From patent publication US20230310408A1, “TLR7 INHIBITOR IN COMBINATION WITH PREDNISOLONE OR HYDROXYCHLOROQUINE FOR TREATING CUTANEOUS LUPUS ERYTHEMATOSUS” (priority 2020, published 2023) come the findings set out here.

“Also recorded” adds a separate entry of the source.

Common to all, as to type: in vivo, mouse
For test [1], the system named is Female MRL/lpr mice. The test is described as follows: Cutaneous model of lupus: female MRL/lpr mice treated orally once daily for 8 weeks.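 For all read-outs here: mice aged 12–14 weeks, randomized by anti-dsDNA antibody titer and urinary NGAL, treated groups compared against vehicle controls.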 Particulars: for % Survival / anti-dsDNA, anti-Ro and anti-smRNP auto-antibody titers / kidney injury markers (proteinuria and urinary NGAL) / cutaneous lesions (number of lesions on face, neck, head, ear; total lesions) / erythema of cutaneous lesions (neck, ear, total): oral once daily; for % Survival / cutaneous lesions (number of lesions on face, neck, head, ear; total lesions) / erythema of cutaneous lesions (neck, ear, total): 8 weeks; for anti-dsDNA, anti-Ro and anti-smRNP auto-antibody titers: 8 weeks (FIG. 3); for anti-dsDNA, anti-Ro and anti-smRNP auto-antibody titers / kidney injury markers (proteinuria and urinary NGAL): at 0.25 and 0.75 mg/kg Compound (I); for kidney injury markers (proteinuria and urinary NGAL): 8 weeks (FIG. 4); for cutaneous lesions (number of lesions on face, neck, head, ear; total lesions): versus vehicle (FIG. 1); for erythema of cutaneous lesions (neck, ear, total): versus vehicle (FIG. 2).

The test system of test [2] is Female MRL/lpr mice. Nature of the test: Combination studies in MRL/lpr model of lupus, established disease. Particulars: 5 weeks; for total number of cutaneous lesions: doses of Table 2 (FIG. 6); for neck erythema of cutaneous lesions: doses of Table 2 (FIG. 7); for ear erythema of cutaneous lesions: doses of Table 2 (FIG. 8); for total erythema of cutaneous lesions: doses of Table 2 (FIG. 9); for kidney injury marker proteinuria: doses of Table 2 (FIG. 10); for kidney injury marker urinary NGAL: doses of Table 2 (FIG. 11). The protocol: Female MRL/lpr mice of 15 weeks of age were treated for 5 weeks. […] Total skin lesions score includes cumulative score of Neck/Back, Face, Head and Ear lesions

In test [3] the test system is Female MRL/lpr mice. The test is described as follows: Combination studies in MRL/lpr model of lupus, advanced disease. Particulars: 5 weeks; for total number of cutaneous lesions: doses of Table 2 (FIG. 12); for neck erythema of cutaneous lesions: doses of Table 2 (FIG. 13, FIG. 14); for ear erythema of cutaneous lesions: doses of Table 2 (FIG. 15); for total erythema of cutaneous lesions: doses of Table 2 (FIG. 16). The protocol:
Female MRL/lpr mice of 16 weeks of age were treated for 5 weeks. […] Total skin lesions score includes cumulative score of Neck/Back, Face, Head and Ear lesions.

As to `Cc1c(-c2[nH]c3ccc(C4CCN(CC(N)=O)CC4)cc3c2C(C)C)cn2ncnc2c1C` [Compound (I), 2-(4-(2-(7,8-dimethyl-[1,2,4]triazolo[1,5-a]pyridin-6-yl)-3-isopropyl-1H-indol-5-yl)piperidin-1-yl)acetamide], the “% Survival” value in the test with Female MRL/lpr mice [1] (0.005 mg/kg) amounted to 87%. Moreover, in the test on Female MRL/lpr mice [1] (0.02 mg/kg), the “% Survival” value came to 93%. Further, the “% Survival” value in the test with Female MRL/lpr mice [1] (0.25 mg/kg) turned out to be 100%. In addition, the “% Survival” value in the test with Female MRL/lpr mice [1] (0.75 mg/kg) is listed as 100%. For the same molecule, the “Type I IFN response gene expression” value with Female MRL/lpr mice [1] (at 0.25 and 0.75 mg/kg, blood, qPCR) was “inhibited”. In the test with Female MRL/lpr mice [1], the “anti-dsDNA, anti-Ro and anti-smRNP auto-antibody titers” value is given as “Inhibition; also recorded: significant suppression”; the “kidney injury markers (proteinuria and urinary NGAL)” value is given as “reduction; also recorded: Inhibition; also recorded: suppression”; the “cutaneous lesions (number of lesions on face, neck, head, ear; total lesions)” value is “significant and robust dose-dependent suppression; also recorded: Dose-dependent inhibition”; the “erythema of cutaneous lesions (neck, ear, total)” value is given as “suppressed; also recorded: significant reduction; also recorded: Dose-dependent inhibition”. Moreover, the “% Survival” value in the test on Female MRL/lpr mice [2] (0.25 mg/kg) is 100%. Besides, in the test on Female MRL/lpr mice [2], the “total number of cutaneous lesions” value is “suppressed”, the “neck erythema of cutaneous lesions” value is recorded as “suppressed”, the “ear erythema of cutaneous lesions” value is given as “suppressed” and the “total erythema of cutaneous lesions” value is “suppressed”. Further, in the test with Female MRL/lpr mice [2], the “kidney injury marker proteinuria” value was “suppression” and the “kidney injury marker urinary NGAL” value was “suppression”. Further, the “% Survival” value in the test with Female MRL/lpr mice [3] (0.25 mg/kg) is 93.3%. In the test with Female MRL/lpr mice [3], the “total number of cutaneous lesions” value is on record as “suppressed”, the “neck erythema of cutaneous lesions” value is recorded as “suppressed; also recorded: increased suppression of erythema of cutaneous lesions on the neck of mice compared the treatment with hydroxychloroquine”, the “ear erythema of cutaneous lesions” value is “suppressed” and the “total erythema of cutaneous lesions” value is given as “suppressed”.

On to `CC12C=CC(=O)C=C1CCC1C2C(O)CC2(C)C1CCC2(O)C(=O)CO` (stereo not shown) [Prednisolone, 11,17-dihydroxy-17-(2-hydroxyacetyl)-10,13-dimethyl-6,7,8,9,10,11,12,13,14,15,16,17-dodecahydrocyclopenta[a] phenanthren-3-one], for which the “% Survival” value in the test with Female MRL/lpr mice [1] (10 mg/kg) was 100%. Further, in the test on Female MRL/lpr mice [1], the “anti-dsDNA, anti-Ro and anti-smRNP auto-antibody titers” value is on record as “inhibition”; the “kidney injury markers (proteinuria and urinary NGAL)” value is recorded as “reduction”; the “cutaneous lesions (number of lesions on face, neck, head, ear; total lesions)” value is listed as “inhibition”; the “erythema of cutaneous lesions (neck, ear, total)” value is “reduction”. In the test with Female MRL/lpr mice [2] (1 mg/kg), the “% Survival” value was 93.3%. Moreover, in the test with Female MRL/lpr mice [2] (10 mg/kg), the “% Survival” value stood at 93.3%. Further, in the test with Female MRL/lpr mice [2], the “total number of cutaneous lesions” value is reported as “suppression of cutaneous lesions but less than treatment with Compound (I)”, the “neck erythema of cutaneous lesions” value was “suppression”, the “ear erythema of cutaneous lesions” value is “suppression of erythema of cutaneous lesions on the ear of mice but less than treatment with Compound (I)” and the “total erythema of cutaneous lesions” value is listed as “suppression”. Besides, in the test on Female MRL/lpr mice [2], the “kidney injury marker proteinuria” value is “suppression” and the “kidney injury marker urinary NGAL” value is on record as “suppression”. Moreover, the “% Survival” value in the test on Female MRL/lpr mice [3] (1 mg/kg) was found to be 86.6%. For the same molecule, the “% Survival” value in the test with Female MRL/lpr mice [3] (10 mg/kg) was found to be 93.3%. Further, in the test with Female MRL/lpr mice [3], the “total number of cutaneous lesions” value is on record as “suppression of cutaneous lesions but less than treatment with Compound (I)”, the “neck erythema of cutaneous lesions” value is given as “suppression”, the “ear erythema of cutaneous lesions” value is “suppression of erythema of cutaneous lesions on the ear of mice but less than treatment with Compound (I)” and the “total erythema of cutaneous lesions” value is listed as “suppression”.

Turning to hydroxychloroquine [HCQ], the “% Survival” value in the test on Female MRL/lpr mice [2] (100 mg/kg) amounted to 93.3%. In the test on Female MRL/lpr mice [2], the “total number of cutaneous lesions” value is listed as “suppression of cutaneous lesions but less than treatment with Compound (I)”, the “neck erythema of cutaneous lesions” value is listed as “suppression”, the “ear erythema of cutaneous lesions” value is reported as “suppression of erythema of cutaneous lesions on the ear of mice but less than treatment with Compound (I)” and the “total erythema of cutaneous lesions” value is recorded as “suppression”. Moreover, in the test on Female MRL/lpr mice [2], the “kidney injury marker proteinuria” value is recorded as “suppression” and the “kidney injury marker urinary NGAL” value is recorded as “suppression”. Moreover, in the test on Female MRL/lpr mice [3] (100 mg/kg), the “% Survival” value was found to be 100%. Moreover, in the test on Female MRL/lpr mice [3], the “total number of cutaneous lesions” value is listed as “suppression of cutaneous lesions but less than treatment with Compound (I)”, the “neck erythema of cutaneous lesions” value is “suppression”, the “ear erythema of cutaneous lesions” value is recorded as “suppression of erythema of cutaneous lesions on the ear of mice but less than treatment with Compound (I)” and the “total erythema of cutaneous lesions” value is recorded as “suppression”.
